Results published in patent publication US20140343105A1, “NOVEL ORALLY ADMINISTERED DABIGATRAN FORMULATION” (BOEHRINGER INGELHEIM INTERNATIONAL GMBH, priority 2012, published 2014).
Values after ≈ are worked out from the molar mass of the structure shown.

Tests used:
[1] = Solubility of the active ingredient (DS) in cyclodextrin solutions at various pH values (UV/VIS); format: physicochemical
Method: Dabigatranetexilat methanesulphonate is tested for its solubility in dependency of the presence of various cyclodextrins at various ph values as follows:
(§1) 2 ml Eppendorf tubes can be filled with about 1.8 ml aqueous solution with a selected pH value. The volume used for the screening is 1.8 ml. The molar amount of cyclodextrin (CD) in the given volume is calculated for the given CD concentration. For a given molar ratio of active ingredient DS/CD the amount of active ingredient (DS) is calculated. Normally, a molar ratio of DS/CD=1/1 is targeted: 1 mol DS and 1 mol CD. As precise as possible, the calculated amount of DS is weighted into the tube exactly. The actual amount is reported.
(§2) According to the actual amount of DS the necessary volume of CD solution is calculated. As precise as possible, the requested volume of CD solution is pipetted into the tube. The actual volume pipetted is reported. The solution in the tube is placed on an Eppendorf Vario shaker. The solution is intensively shaken by means of ultrasound (Hielscher Ultrasound Processor) for 10 seconds at the maximum. It is payed attention to heat generation and overheating has to be avoided.
(§3) The tube is shaken for 1 hour in the Eppendorf Thermomixer at the given temperature and at 800 rpm. Subsequently, the pH value is checked and the given pH value adjusted accordingly, if necessary. The tube is shaken for 24 hours in the Eppendorf Thermomixer at the given temperature and at 800 rpm.
Eppendorf tubes are centrifuged for about 15 minutes at the given temperature, but at 40° C. at the maximum (max. temperature of the centrifuge), and 14,000 rpm. In case no clear supernatant is obtained centrifugation is repeated with adjusted rpm (revolutions per minute) and time. […]
(§4) The clear supernatant or filtrate is used for the analysis of the concentration. The pH value of the clear solution is analysed. The DS concentration of the clear solution is measured by UV/VIS spectroscopy (e.g., Hewlett-Packard 8453 UV/Visible Spectrophotometer).

[2] = Solubility of DS in presence of hydrophilic polymers (CMC-Na) and cyclodextrins; format: physicochemical
Method: as §1, §2, §3
Eppendorf tubes are centrifuged for about 15 minutes at the given temperature, but at 40° C. at the maximum (max. temperature of the centrifuge), and 14,000 rpm. In case no clear supernatant is obtained centrifugation is repeated with adjusted rpm (revolutions per minute) and time. In case the supernatant is not clear and a filtration step is necessary the content of the tube is sucked or poured into 2 ml single use syringe. The supernatant is filtered through a 0.2 μm filter (Pall GHP Acrodisc 13 mm Syringe Filter 0.2 μm pore size). About 2-3 drops of the solution are discarded. The rest of the volume is collected in a second tube. If temperatures above room temperature (about 22° C.) are given, filters and tubes have to be tempered at that temperature prior to use.
as §4
DS, especially Dabigatranetexilat methanesulphonate, is tested for its solubility in dependency of the presence of various hydrophilic polymers and various cyclodextrins whereby the hydrophilic polymer is added to the aqueous solution before adding the DS.

With `CCCCCCOC(=O)NC(=N)c1ccc(NCc2nc3cc(C(=O)N(CCC(=O)OCC)c4ccccn4)ccc3n2C)cc1` [DS, dabigatran etexilate] the “effect of cyclodextrins on solubility of the active ingredient” value ([1]; all cyclodextrins tested, various pH values) was “significantly improve the solubility”, the solubility at 24 h ([1]; aqueous α-cyclodextrin solution, aqueous with cosolvent or surfactant or cyclodextrin, thermodynamic from solid, 10% (w/v) α-CD solution at pH 3) was roughly 43 mg/mL (≈ 68.5 mM) and the “mol α-CD necessary to complex 1 mol API” value ([1]; α-CD 10% (w/v)) was “About 1.7 mol”. For the same compound, the “increase of the solubility of the DS and of the drug load DS/CD” value ([2]; addition of 0.05% to 0.5% of CMC-Na, α-CD 10% (w/v)) was “up to 11%”, the “complexation efficiency of the CD” value ([2]; addition of a hydrophilic polymer before adding the DS) was “significantly improved” and the solubility at 24 h ([2]; aqueous α-cyclodextrin solution with CMC-Na, aqueous with cosolvent or surfactant or cyclodextrin, thermodynamic from solid, 14% α-CD solution at pH 3 with 0.25% CMC-Na) was roughly 67.3 mg/mL. For the same compound, the “g α-CD to complex 1 g API” value ([2]; α-CD, CMC-Na added) was “≈ 2.1 g” and the “mol α-CD necessary to complex 1 mol API” value ([2]; α-CD, CMC-Na added) was “About 1.6 mol”.
